Test results published in publication PMC10947119 (Angewandte Chemie (International Ed. in English), 2023).

Key:
MtbPPAT [1] = target: T1, MtbPPAT (Mycobacterium tuberculosis, UniProt P9WPA5); assay type: binding; conditions: for Affinity increase (KD lower) relative to parent indole fragment 12: KD by ITC vs KD of 12
MtbPPAT [2] = target: T1, MtbPPAT; conditions: read-out: KD, previous estimates; ITC, near-identical conditions; cited from earlier work
wildtype Mtb H37RvMA = assay type: cell-based, Mycobacterium tuberculosis
Mycobacterium abscessus = conditions: cited from earlier work
[3] = system: PPAT of Mycobacterium abscessus; conditions: cited from earlier work
MtbPPAT [4] = target: T1, MtbPPAT; assay: MtbPPAT activity assay; assay type: biochemical; conditions: 1 mM compound, ATP 120, 240, 500 µM

T1 sequence (P9WPA5 whole entry, looked up, the tested form may be a part): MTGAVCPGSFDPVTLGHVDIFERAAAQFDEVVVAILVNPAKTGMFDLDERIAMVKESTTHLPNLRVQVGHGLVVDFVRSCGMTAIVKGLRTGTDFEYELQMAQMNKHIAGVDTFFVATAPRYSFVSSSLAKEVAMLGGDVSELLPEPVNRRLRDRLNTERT

Structure (SMILES) | Affinity increase (KD lower) relative to parent indole fragment 12 (MtbPPAT [1]) | Kd (MtbPPAT [2]) | Effect of ATc on potency (wildtype Mtb H37RvMA) | Whole-cell activity against M. abscessus (Mycobacterium abscessus) | Affinity for M. abscessus PPAT [3] | Ligand efficiency LE (MtbPPAT [1]; from direct ITC KD, Condition 1 (20 mM NaCl)) | Mode of inhibition of MtbPPAT activity (MtbPPAT [4])
O=C(O)c1cnn(-c2ccccc2)c1OCCc1c[nH]c2ccccc12 [compound 19] | ≈ 25 fold | – | – | – | – | – | –
CC(C)(COP(=O)(O)OP(=O)(O)OC[C@H]1O[C@@H](n2cnc3c(N)ncnc32)[C@H](O)[C@@H]1OP(=O)(O)O)[C@@H](O)C(=O)NCCC(=O)NCCS [CoA, coenzyme A] | – | ≥ 13 µM | – | – | – | – | –
O=C(O)c1cnn(-c2ccccc2)c1OCCCc1c[nH]c2ccccc12 [compound 20] | ≈ 65 fold | – | no effect | lacked whole‐cell activity | low‐micromolar affinity | 0.24 kcal mol^−1 NHA^−1 | ATP‐competitive manner
